What was measured:
Format in all cases: cell-based
E. coli DH5α = assay: Antibacterial activity: MIC and growth curve against E. coli DH5α in 96-well plate; settings: minimal inhibitory concentration against E. coli DH5α; 96-well plate, 5×10^5 CFU/mL, 37° C., judged after 8 h
How it was run: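 MIC taken as lowest protein level with no bacterial growth, tracked by A600 every 30 min during 37 °C, 175 rpm culture. Two-fold protein series 50-12.5 μg/mL final, triplicate wells, against 5×10^5 CFU/mL of LB-washed mid-log cells.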

E. coli BL21 = assay: MIC against Gram-negative bacteria: E. coli BL21
How it was run: (§1)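 Growth inhibition by human EGF domain proteins was scored in LB liquid culture seeded at 5×10^5 CFU/mL. Protein was applied as a two-fold dilution series in triplicate, with shaking incubation at 37° C; MIC is the lowest concentration giving no growth.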

Pseudomonas aeruginosa = assay: MIC against Gram-negative bacteria: Pseudomonas aeruginosa
How it was run: as §1

Klebsiella pneumonia = assay: MIC against Gram-negative bacteria: Klebsiella pneumonia
How it was run: as §1

Enterobacter cloacae = assay: MIC against Gram-negative bacteria: Enterobacter cloacae
How it was run: as §1

Aeromonas hydrophila = assay: MIC against Gram-negative bacteria: Aeromonas hydrophila
How it was run: as §1

Citrobacter diversus = assay: MIC against Gram-negative bacteria: Citrobacter diversus
How it was run: as §1

Moraxella catarrhalis = assay: MIC against Gram-negative bacteria: Moraxella catarrhalis
How it was run: as §1

Proteus mirabilis = assay: MIC against Gram-negative bacteria: Proteus mirabilis
How it was run: as §1

Proteus vulgaris = assay: MIC against Gram-negative bacteria: Proteus vulgaris
How it was run: as §1

Serratia marcescens = assay: MIC against Gram-negative bacteria: Serratia marcescens
How it was run: as §1

[1] = 96-well plate, 5×10^5 CFU/mL, 37° C., 10 h

Q: What does the source list for “PRT450 (KCLCPLGFLLANDSKTCEDIDE; listed as Homo sapiens)”?
A: MIC (E. coli DH5α): 12.5 µg/mL; MIC against E. coli BL21 (E. coli BL21; [1]): 12.5 µg/mL; MIC against P. aeruginosa (Pseudomonas aeruginosa; [1]): 12.5 µg/mL; MIC against K. pneumonia (Klebsiella pneumonia; [1]): 50 µg/mL; MIC against E. cloacae (Enterobacter cloacae; [1]): 12.5 µg/mL; MIC against A. hydrophila (Aeromonas hydrophila; [1]): 50 µg/mL; MIC against C. diversus (Citrobacter diversus; [1]): 12.5 µg/mL; MIC against M. catarrhalis (Moraxella catarrhalis; [1]): 50 µg/mL; MIC against P. mirabilis (Proteus mirabilis; [1]): 12.5 µg/mL; MIC against P. vulgaris (Proteus vulgaris; [1]): 50 µg/mL; MIC against S. marcescens (Serratia marcescens; [1]): 12.5 µg/mL

Q: “PRT1455 (DWDECVDSAEHDCSPAAWCINLEGSYTCQCRTTRDATPSRAGRACE; listed as Homo sapiens)” was tested. Which MIC (E. coli DH5α) did it give?
A: The MIC was 25 µg/mL.

Q: And the “MIC against E. coli BL21” value (E. coli BL21; E. coli BL21, 5×10^5 CFU/mL, 10 h cultivation at 37° C.)?
A: The value was 12.5 µg/mL.

Q: And the “MIC against P. aeruginosa” value (Pseudomonas aeruginosa; Pseudomonas aeruginosa, 5×10^5 CFU/mL, 10 h cultivation at 37° C.)?
A: Its value is 25 µg/mL.

Q: And the “MIC against K. pneumonia” value (Klebsiella pneumonia; Klebsiella pneumonia, 5×10^5 CFU/mL, 10 h cultivation at 37° C.)?
A: The value was 25 µg/mL.

Q: What about the “MIC against E. cloacae” value (Enterobacter cloacae; Enterobacter cloacae, 5×10^5 CFU/mL, 10 h cultivation at 37° C.) of the same substance?
A: The value was 12.5 µg/mL.

Q: And the “MIC against A. hydrophila” value (Aeromonas hydrophila; Aeromonas hydrophila, 5×10^5 CFU/mL, 10 h cultivation at 37° C.)?
A: The value was 25 µg/mL.

Q: What about the “MIC against C. diversus” value (Citrobacter diversus; Citrobacter diversus, 5×10^5 CFU/mL, 10 h cultivation at 37° C.) of the same substance?
A: The value was 12.5 µg/mL.

Q: What about the “MIC against M. catarrhalis” value (Moraxella catarrhalis; Moraxella catarrhalis, 5×10^5 CFU/mL, 10 h cultivation at 37° C.) of the same substance?
A: Its value is 12.5 µg/mL.

Q: What about the “MIC against P. mirabilis” value (Proteus mirabilis; Proteus mirabilis, 5×10^5 CFU/mL, 10 h cultivation at 37° C.) of the same substance?
A: Its value is 12.5 µg/mL.

Q: And the “MIC against P. vulgaris” value (Proteus vulgaris; Proteus vulgaris, 5×10^5 CFU/mL, 10 h cultivation at 37° C.)?
A: The value was 12.5 µg/mL.

Q: What about the “MIC against S. marcescens” value (Serratia marcescens; Serratia marcescens, 5×10^5 CFU/mL, 10 h cultivation at 37° C.) of the same substance?
A: The value was 25 µg/mL.

Q: How did the MIC (E. coli DH5α) turn out when “PRT528 (CSCNSNGQLGSCHPLTGDCINQEPKDSSPAEECDD; listed as Homo sapiens)” was run?
A: Its MIC is 12.5 µg/mL.

Q: And the “MIC against E. coli BL21” value (E. coli BL21; [1])?
A: The value was 25 µg/mL.

Q: What about the “MIC against P. aeruginosa” value (Pseudomonas aeruginosa; [1]) of the same substance?
A: Its value is 50 µg/mL.

Q: What about the “MIC against K. pneumonia” value (Klebsiella pneumonia; [1]) of the same substance?
A: The value was 25 µg/mL.

Q: What about the “MIC against E. cloacae” value (Enterobacter cloacae; [1]) of the same substance?
A: The value was 12.5 µg/mL.

Q: And the “MIC against A. hydrophila” value (Aeromonas hydrophila; [1])?
A: Its value is 25 µg/mL.

Q: What about the “MIC against C. diversus” value (Citrobacter diversus; [1]) of the same substance?
A: Its value is 50 µg/mL.

Q: What about the “MIC against M. catarrhalis” value (Moraxella catarrhalis; [1]) of the same substance?
A: Its value is 25 µg/mL.

Q: And the “MIC against P. mirabilis” value (Proteus mirabilis; [1])?
A: The value was 12.5 µg/mL.

Q: And the “MIC against P. vulgaris” value (Proteus vulgaris; [1])?
A: Its value is 25 µg/mL.

Q: What about the “MIC against S. marcescens” value (Serratia marcescens; [1]) of the same substance?
A: The value was 50 µg/mL.

Q: “PRT680 (DVNECAEGSPCSPGWCENLPGSFRCTCAQGYAPAPDGRSCL; listed as Homo sapiens)” was tested. Which MIC (E. coli DH5α) did it give?
A: The MIC was 12.5 µg/mL.

Q: And the “MIC E. coli BL21” value (E. coli BL21; [1])?
A: The value was 25 µg/mL.

Q: What about the “MIC P. aeruginosa” value (Pseudomonas aeruginosa; [1]) of the same substance?
A: The value was 25 µg/mL.

Q: What about the “MIC K. pneumonia” value (Klebsiella pneumonia; [1]) of the same substance?
A: The value was 50 µg/mL.

Q: What about the “MIC E. cloacae” value (Enterobacter cloacae; [1]) of the same substance?
A: The value was 25 µg/mL.

Q: What about the “MIC A. hydrophila” value (Aeromonas hydrophila; [1]) of the same substance?
A: The value was 12.5 µg/mL.

Q: What about the “MIC C. diversus” value (Citrobacter diversus; [1]) of the same substance?
A: The value was 25 µg/mL.

Q: What about the “MIC M. catarrhalis” value (Moraxella catarrhalis; [1]) of the same substance?
A: The value was 50 µg/mL.

Q: And the “MIC P. mirabilis” value (Proteus mirabilis; [1])?
A: Its value is 12.5 µg/mL.

Q: And the “MIC P. vulgaris” value (Proteus vulgaris; [1])?
A: Its value is 50 µg/mL.

Q: And the “MIC S. marcescens” value (Serratia marcescens; [1])?
A: Its value is 25 µg/mL.

Q: Which results are given for “PRT183 (ECIPHNGCRHGTCSTPWQCTCDEGWGGLFCD; listed as Homo sapiens)”?
A: MIC (E. coli DH5α): 12.5 µg/mL; MIC (μg/mL) E. coli BL21 (E. coli BL21; E. coli BL21, 10 h cultivation at 37° C., 5×10^5 CFU/mL): 12.5 µg/mL; MIC (μg/mL) P. aeruginosa (Pseudomonas aeruginosa; P. aeruginosa, 10 h cultivation at 37° C., 5×10^5 CFU/mL): 12.5 µg/mL; MIC (μg/mL) K. pneumonia (Klebsiella pneumonia; K. pneumonia, 10 h cultivation at 37° C., 5×10^5 CFU/mL): 25 µg/mL; MIC (μg/mL) E. cloacae (Enterobacter cloacae; E. cloacae, 10 h cultivation at 37° C., 5×10^5 CFU/mL): 12.5 µg/mL; MIC (μg/mL) A. hydrophila (Aeromonas hydrophila; A. hydrophila, 10 h cultivation at 37° C., 5×10^5 CFU/mL): 25 µg/mL; MIC (μg/mL) C. diversus (Citrobacter diversus; C. diversus, 10 h cultivation at 37° C., 5×10^5 CFU/mL): 12.5 µg/mL; MIC (μg/mL) M. catarrhalis (Moraxella catarrhalis; M. catarrhalis, 10 h cultivation at 37° C., 5×10^5 CFU/mL): 25 µg/mL; MIC (μg/mL) P. mirabilis (Proteus mirabilis; P. mirabilis, 10 h cultivation at 37° C., 5×10^5 CFU/mL): 12.5 µg/mL; MIC (μg/mL) P. vulgaris (Proteus vulgaris; P. vulgaris, 10 h cultivation at 37° C., 5×10^5 CFU/mL): 25 µg/mL; MIC (μg/mL) S. marcescens (Serratia marcescens; S. marcescens, 10 h cultivation at 37° C., 5×10^5 CFU/mL): 12.5 µg/mL

Q: “PRT132 (ISDRCLPNYCEHGGECSQSWSTFHCNCTNTGYRGATCH; listed as Homo sapiens)” was tested. Which MIC (E. coli DH5α) did it give?
A: The MIC was 25 µg/mL.

Q: What about the “MIC (μg/mL) E. coli BL21” value (E. coli BL21; E. coli BL21, 96-well plate, 5×10^5 CFU/mL, 37° C., 10 h) of the same substance?
A: Its value is 12.5 µg/mL.

Q: What about the “MIC (μg/mL) P. aeruginosa” value (Pseudomonas aeruginosa; Pseudomonas aeruginosa, 96-well plate, 5×10^5 CFU/mL, 37° C., 10 h) of the same substance?
A: The value was 12.5 µg/mL.

Q: And the “MIC (μg/mL) K. pneumonia” value (Klebsiella pneumonia; Klebsiella pneumonia, 96-well plate, 5×10^5 CFU/mL, 37° C., 10 h)?
A: The value was 12.5 µg/mL.

Q: What about the “MIC (μg/mL) E. cloacae” value (Enterobacter cloacae; Enterobacter cloacae, 96-well plate, 5×10^5 CFU/mL, 37° C., 10 h) of the same substance?
A: The value was 25 µg/mL.

Q: What about the “MIC (μg/mL) A. hydrophila” value (Aeromonas hydrophila; Aeromonas hydrophila, 96-well plate, 5×10^5 CFU/mL, 37° C., 10 h) of the same substance?
A: The value was 50 µg/mL.

Q: And the “MIC (μg/mL) C. diversus” value (Citrobacter diversus; Citrobacter diversus, 96-well plate, 5×10^5 CFU/mL, 37° C., 10 h)?
A: Its value is 25 µg/mL.

Q: What about the “MIC (μg/mL) M. catarrhalis” value (Moraxella catarrhalis; Moraxella catarrhalis, 96-well plate, 5×10^5 CFU/mL, 37° C., 10 h) of the same substance?
A: The value was 12.5 µg/mL.

Q: And the “MIC (μg/mL) P. mirabilis” value (Proteus mirabilis; Proteus mirabilis, 96-well plate, 5×10^5 CFU/mL, 37° C., 10 h)?
A: The value was 25 µg/mL.

Q: What about the “MIC (μg/mL) P. vulgaris” value (Proteus vulgaris; Proteus vulgaris, 96-well plate, 5×10^5 CFU/mL, 37° C., 10 h) of the same substance?
A: The value was 50 µg/mL.

Q: What about the “MIC (μg/mL) S. marcescens” value (Serratia marcescens; Serratia marcescens, 96-well plate, 5×10^5 CFU/mL, 37° C., 10 h) of the same substance?
A: Its value is 12.5 µg/mL.

Q: “PRT923 (LDDACISNPCHKGALCDTNPLNGQYICTCPQGYKGADCT; listed as Homo sapiens)” was tested. Which MIC (E. coli DH5α) did it give?
A: The MIC was 25 µg/mL.

Q: And the MIC (E. coli BL21; E. coli BL21, 10 h cultivation at 37° C.)?
A: The MIC was 50 µg/mL.

Q: And the MIC (Pseudomonas aeruginosa; P. aeruginosa, 10 h cultivation at 37° C.)?
A: The MIC was 25 µg/mL.

Q: And the MIC (Klebsiella pneumonia; K. pneumonia, 10 h cultivation at 37° C.)?
A: The MIC was 25 µg/mL.

Q: What about the MIC (Enterobacter cloacae; E. cloacae, 10 h cultivation at 37° C.) of the same substance?
A: The MIC was 12.5 µg/mL.

Q: And the MIC (Aeromonas hydrophila; A. hydrophila, 10 h cultivation at 37° C.)?
A: The MIC was 50 µg/mL.

Q: What about the MIC (Citrobacter diversus; C. diversus, 10 h cultivation at 37° C.) of the same substance?
A: The MIC was 25 µg/mL.

Q: And the MIC (Moraxella catarrhalis; M. catarrhalis, 10 h cultivation at 37° C.)?
A: Its MIC is 12.5 µg/mL.

Q: What about the MIC (Proteus mirabilis; P. mirabilis, 10 h cultivation at 37° C.) of the same substance?
A: The MIC was 25 µg/mL.

Q: And the MIC (Proteus vulgaris; P. vulgaris, 10 h cultivation at 37° C.)?
A: The MIC was 50 µg/mL.

Q: And the MIC (Serratia marcescens; S. marcescens, 10 h cultivation at 37° C.)?
A: The MIC was 25 µg/mL.

Reference: patent publication US9833497B2, “Human originated EGF domain proteins and use of the same” (CHENGDU SOURCEBIO LIMITED-LIABILITY COMPANY, priority 2013, dated 2017)
